Assay results reported in ChEMBL document CHEMBL1201862, “PubChem BioAssay data set” (2004).
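How tested: cells in 96-well plates exposed to compound for 48 hours at five concentrations. Abbreviation: GI50, concentration required for 50% inhibition of growth.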 Calls of active or inactive are those of the source. Cut-off read from the data, not from the text of the source: active = GI50 up to about 1.1 µM and inactive = higher. Where a SMILES comes first, the peptide text is derived from it. [ ]: non-standard residue; d: D form. The star is where a group is joined. mTyr = N[CH](Cc1cccc(O)c1)C(=O)O; Cbz = O=C(OCc1ccccc1)*; OBn = c1ccc(CO*)cc1

How the values were obtained:
Assay in all cases: NCI tumour cell line growth inhibition, 48 h
HOP-62 = test system: HOP-62
SW-620 = test system: SW-620
HOP-92 = test system: HOP-92
IGROV-1 = test system: IGROV-1
RPMI-8226 = test system: RPMI-8226
A549 = test system: A549
OVCAR-5 = test system: OVCAR-5
NCI/ADR-RES = test system: NCI/ADR-RES
UO-31 = test system: UO-31
MOLT-4 = test system: MOLT-4
HL-60 = test system: HL-60
OVCAR-3 = test system: OVCAR-3
HCT-15 = test system: HCT-15
Malme-3M = test system: Malme-3M
786-0 = test system: 786-0
MDA-MB-435 = test system: MDA-MB-435
SR = test system: SR
RXF 393 = test system: RXF 393
SF-539 = test system: SF-539

Compound | GI50 (HOP-62) | GI50 (SW-620) | GI50 (HOP-92) | GI50 (IGROV-1) | GI50 (RPMI-8226) | GI50 (A549) | GI50 (OVCAR-5) | GI50 (NCI/ADR-RES) | GI50 (UO-31) | GI50 (MOLT-4) | GI50 (HL-60) | GI50 (OVCAR-3) | GI50 (HCT-15) | GI50 (Malme-3M) | GI50 (786-0) | GI50 (MDA-MB-435) | GI50 (SR) | GI50 (RXF 393) | GI50 (SF-539)
CC(C)OCC(O)COc1ccc2ccc(=O)oc2c1 (stereo not given) | > 100 µM (inactive) | > 100 µM (inactive) | > 100 µM (inactive) | > 100 µM (inactive) | > 100 µM (inactive) | > 100 µM (inactive) | > 100 µM (inactive) | > 100 µM (inactive) | > 100 µM (inactive) | > 100 µM (inactive) | > 100 µM (inactive) | > 100 µM (inactive) | > 100 µM | > 100 µM (inactive) | > 100 µM (inactive) | > 100 µM (inactive) |  |  | 
COc1ccccc1NC(=O)C(C#N)=C(SC)SC | > 100 µM (inactive) | > 100 µM (inactive) | 32.3 µM (inactive) | 51.9 µM (inactive) | > 100 µM (inactive) | > 100 µM (inactive) | > 100 µM (inactive) |  | > 100 µM (inactive) | > 100 µM (inactive) | > 100 µM (inactive) | > 100 µM (inactive) | > 100 µM | > 100 µM (inactive) | > 100 µM (inactive) | > 100 µM (inactive) | > 100 µM (inactive) | > 100 µM (inactive) | > 100 µM (inactive)
Cc1cc(-c2cscn2)c(O)c([N+](=O)[O-])c1 | 52.7 µM (inactive) | 75.7 µM (inactive) | 93.5 µM (inactive) | 55 µM (inactive) | 52.6 µM (inactive) | 46.6 µM (inactive) | > 100 µM (inactive) | 46.5 µM (inactive) | 50.2 µM (inactive) |  | 34.8 µM (inactive) |  | 38.4 µM | 70.6 µM (inactive) | 60.8 µM (inactive) | 74.3 µM (inactive) |  |  | 56 µM (inactive)
O=C(O)CCSCCCN1C(=O)c2ccccc2C1=O |  | > 100 µM (inactive) | > 100 µM (inactive) | > 100 µM (inactive) | > 100 µM (inactive) | > 100 µM (inactive) | > 100 µM (inactive) |  | > 100 µM (inactive) | > 100 µM (inactive) |  | > 100 µM (inactive) | > 100 µM | > 100 µM (inactive) | > 100 µM (inactive) |  | > 100 µM (inactive) | > 100 µM (inactive) | > 100 µM (inactive)
CC(=O)O[C@H]1CC2C(C3CCC(C(C)CCC(N)=O)[C@]31C)[C@H](OC(C)=O)C[C@@H]1CC3(CC[C@]21C)OOC1(CC[C@]2(C)C4C[C@H](OC(C)=O)[C@]5(C)C(C(C)CCC(N)=O)CCC5C4[C@H](OC(C)=O)C[C@@H]2C1)OO3 (stereo not given in full) | 2.01 µM (inactive) | 2.63 µM (inactive) |  | 1.69 µM (inactive) | 1.22 µM (inactive) | 1.43 µM (inactive) | 1.69 µM (inactive) | 2.09 µM (inactive) | 1.13 µM (inactive) | 1.11 µM (active) | 1.45 µM (inactive) | 1.42 µM (inactive) | 1.48 µM | 2.61 µM (inactive) | 1.55 µM (inactive) | 1.4 µM (inactive) |  | 1.61 µM (inactive) | 
COC(=O)C(Cc1cccc(O)c1)NC(=O)C(CC(=O)OCc1ccccc1)NC(=O)OCc1ccccc1 (stereo not given) (Cbz-Asp(OBn)-[mTyr]-OMe; configuration not given here) | > 100 µM (inactive) | > 100 µM (inactive) | 29.1 µM (inactive) | 30.6 µM (inactive) | 70.5 µM (inactive) | > 100 µM (inactive) | > 100 µM (inactive) |  | 65.3 µM (inactive) | 32.1 µM (inactive) | 35.4 µM (inactive) |  | > 100 µM | > 100 µM (inactive) | > 100 µM (inactive) |  | 46.1 µM (inactive) | > 100 µM (inactive) | 
